# Assay results published in patent US20170095512A1, “METHODS OF INDUCING MYELINATION AND MATURATION OF OLIGODENDROCYTES” (KADIMASTEM LTD., priority 2014, published 2017).
# Entries after “also recorded” stand apart in the source; their conditions may differ.
# Tests used:
# [1] = tested on: human oligodendrocytes precursor cells (hOPC); assay: Microarray gene expression analysis of LDN treated hOPC; assay type: cell-based; details: 125 nM, 35 days
# Procedure: LDN (125 nM) was supplemented to human oligodendrocytes precursor cells (hOPC) for 35 days. Microarray analysis was performed on duplicate of LDN treated and Non-treated (NT) hOPC.
# [2] = tested on: hPSC derived oligodendrocytes co-cultured with rodent dorsal root ganglia neurons (MBP+ cells); assay: Co-culture myelination assay (human oligodendrocytes with DRG neurons), MBP staining; assay type: cell-based
# Procedure: ArrayScan VTI HCS reader system (Cellomis, Thermo-scientific) was used for scanning at least 20 fields for each tested well under 10× objective in both assays (differentiation and myelination). Cellomics Neural profiling bio-application was used for processing and analyzing the images. For differentiation assay, the following parameters were tested: number and percentage of O4+ cells, number of processes, processes length and number of branching points. For myelination assay, the same morphological parameters were tested and in addition: areas of myelinated axons in pixels (MBP&NF overlap area) and Number of myelinated regions (MBP&NF overlap count) were also analyzed. Modifications in the Neuro-profiling bio-application were conducted for this specific purpose. T-test analysis was used to compare between treatments. The 4-parameter Hill-Slope curve fittings were generated by GraphPad Prism software using least squares fitting method and EC50 values were calculated.
# DRG dissociated cells from mouse embryonic day 13 (E13) or rat embryonic day (E15) were seeded on matrigel and PDL-coated 96 well plates (20,000 cells/well). In order to allow long culture and co-culture of neuron axons in 96 well plates without de-attachment, a method where the periphery of each well was scratched leaving sticky edges (and smooth surface) was developed. This scratch methodology enables long lasting culture of neuron axons on 96 well format. Once DRG neurons were seeded they were fed with Neurobasal medium (Gibco) supplemented with B27 (Gibco) and 50 ng/ml NGF (Alomone labs) (NB medium) for 2-3 weeks prior hES-OPC addition. […]
# For testing maturation and myelination capacity of the hPSC derived oligodendrocytes, a co-culture system between rodent dorsal root ganglia (DRGs) and hPSCs derived oligodendrocytes was used. The number of MBP+ cells (MBP, a marker of oligodendrocytes' myelin) and Myelin formation (measured by co-localization area between MBP and neurofilament positive neuronal axons) was quantified.
smiles,measurement,setting,value
c1ccc2c(-c3cnn4cc(-c5ccc(N6CCNCC6)cc5)cnc34)ccnc2c1 [LDN-193189],"LDN expression value: ADAMTS5, cluster 16924620",[1],4.59
same,"LDN expression value: AN04, cluster 16755712",[1],3.1
same,"LDN expression value: ARHGAP28, cluster 16850724",[1],3.09
same,"LDN expression value: ASPN, cluster 17095887",[1],9.23
same,"LDN expression value: ATP8B1, cluster 16855510",[1],3.98
same,"LDN expression value: BCAS1, cluster 16920475",[1],6.52
same,"LDN expression value: BMP8B, cluster 16685729",[1],4.53
same,"LDN expression value: C1QTNF9B-AS1, cluster 16773183",[1],3.69
same,"LDN expression value: CACNG5, cluster 16837160",[1],5.71
same,"LDN expression value: CATSPER2P1, cluster 16808340",[1],5.12
same,"LDN expression value: CGB2, cluster 16863963",[1],4.05
same,"LDN expression value: CKMT1A, cluster 16800268",[1],4.08
same,"LDN expression value: CLDN25, cluster 16731401",[1],4.26
same,"LDN expression value: CLVS2, cluster 17012223",[1],4.53
same,"LDN expression value: COL12A1, cluster 17020846",[1],8.23
same,"LDN expression value: CYTL1, cluster 16973934",[1],5.81
same,"LDN expression value: DLX2, cluster 16905108",[1],6.25
same,"LDN expression value: DLX6-AS1, cluster 17060039",[1],5.13
same,"LDN expression value: EFTUD1P1, cluster 16804141",[1],3.87
same,"LDN expression value: FLJ16124, cluster 16880774",[1],3.13
same,"LDN expression value: GABRQ, cluster 17107855",[1],6.76
same,"LDN expression value: GAD2, cluster 16703382",[1],3.71
same,"LDN expression value: GFRA1, cluster 16718670",[1],7.52
same,"LDN expression value: GJB2, cluster 16777185",[1],4.88
same,"LDN expression value: GPR126, cluster 17013126",[1],5.42
same,"LDN expression value: GRIK1, cluster 16924761",[1],7.51
same,"LDN expression value: GSX2, cluster 16966801",[1],4.62
same,"LDN expression value: HCG24, cluster 17028423",[1],2.38
same,"LDN expression value: ID1, cluster 16912362",[1],4.47
same,"LDN expression value: ID3, cluster 16683377",[1],5.5
same,"LDN expression value: IGLV3-9, cluster 16927827",[1],5.34
same,"LDN expression value: IL17RB, cluster 16941871",[1],4.55
same,"LDN expression value: INSM1, cluster 16911917",[1],6.13
same,"LDN expression value: KIAA1199, cluster 16803754",[1],4.07
same,"LDN expression value: LOC284632, cluster 16660753",[1],3.33
same,"LDN expression value: LOC100286922, cluster 16909695",[1],3.3
same,"LDN expression value: LPAR3, cluster 16688992",[1],5.8
same,"LDN expression value: LRRC7, cluster 16665976",[1],3.48
same,"LDN expression value: LRRTM1, cluster 16899533",[1],3.97
same,"LDN expression value: MIR1226, cluster 16940440",[1],4.98
same,"LDN expression value: MIR1321, cluster 17105179",[1],3.47
same,"LDN expression value: MIR3160-1, cluster 16724356",[1],4.18
same,"LDN expression value: MSLNL, cluster 16822561",[1],5.67
same,"LDN expression value: NUDT9P1, cluster 16716499",[1],3.56
same,"LDN expression value: OR2V1, cluster 17004061",[1],3.13
same,"LDN expression value: OTTHUMG00000156244, cluster 17056553",[1],4.16
same,"LDN expression value: OTTHUMG00000176466, cluster 16826102",[1],5.02
same,"LDN expression value: PAPPA2, cluster 16674151",[1],4.24
same,"LDN expression value: PDE5A, cluster 16979339",[1],4.13
same,"LDN expression value: PPP1R17, cluster 17044956",[1],5.13
same,"LDN expression value: RNA5SP482, cluster 16912470",[1],2.92
same,"LDN expression value: SCARNA1, cluster 16661495",[1],2.28
same,"LDN expression value: SCGN, cluster 17005473",[1],6.7
same,"LDN expression value: SERPINA3, cluster 16787902",[1],5.07
same,"LDN expression value: SLC1A2, cluster 16737325",[1],6.08
same,"LDN expression value: SLC1A4, cluster 16880712",[1],8.96
same,"LDN expression value: SLC1A5, cluster 16873632",[1],6.29
same,"LDN expression value: SNORA70B, cluster 16898108",[1],2.38
same,"LDN expression value: SNORD1B, cluster 16838101",[1],3.01
same,"LDN expression value: SNORD37, cluster 16867229",[1],3.63
same,"LDN expression value: SNORD88B, cluster 16874641",[1],5.05
same,"LDN expression value: SOX10, cluster 16934881",[1],6.63
same,"LDN expression value: SP8, cluster 17055689",[1],4.65
same,"LDN expression value: ST18, cluster 17077073",[1],2.85
same,"LDN expression value: TEX35, cluster 16674240",[1],3.05
same,"LDN expression value: TNFAIP6, cluster 16886491",[1],5.47
same,"LDN expression value: TNR, cluster 16696624",[1],8.09
same,"LDN expression value: TRAJ46, cluster 16782032",[1],3.99
same,"LDN expression value: TRIM65, cluster 16848961",[1],5.41
same,"LDN expression value: TTK, cluster 17010552",[1],5.68
same,"LDN expression value: UGT8, cluster 16970001",[1],8.99
same,"LDN expression value: WIF1, cluster 16767081",[1],5.73
same,"LDN expression value: ZIC2, cluster 16776103",[1],4.76
same,LDN expression value: cluster 16662690,[1],3.02
same,LDN expression value: cluster 16689704,[1],2.34
same,LDN expression value: cluster 16697040,[1],3.18
same,LDN expression value: cluster 16697217,[1],3.02
same,LDN expression value: cluster 16703561,[1],5.3
same,LDN expression value: cluster 16707466,[1],3.92
same,LDN expression value: cluster 16740950,[1],5.53
same,LDN expression value: cluster 16742286,[1],4.35
same,LDN expression value: cluster 16758848,[1],4.29
same,LDN expression value: cluster 16766940,[1],6.76
same,LDN expression value: cluster 16781352,[1],4.74
same,LDN expression value: cluster 16797929,[1],5.86
same,LDN expression value: cluster 16834632,[1],3.21
same,LDN expression value: cluster 16846798,[1],5.15
same,LDN expression value: cluster 16906256,[1],3.32
same,LDN expression value: cluster 16926511,[1],5.66
same,LDN expression value: cluster 16928859,[1],2.2
same,LDN expression value: cluster 16985206,[1],3.41
same,LDN expression value: cluster 16997369,[1],4.3
same,LDN expression value: cluster 17012233,[1],3.53
same,LDN expression value: cluster 17042403,[1],7.47
same,LDN expression value: cluster 17056789,[1],6.64
same,LDN expression value: cluster 17063571,[1],2.81
same,LDN expression value: cluster 17112263,[1],2.9
same,LDN expression value: cluster 17117590,[1],5.68
same,LDN expression value: cluster 17118266,[1],2.43
same,LDN expression value: cluster 17118303,[1],3.61
same,LDN expression value: cluster 17124590,[1],2.62
same,MBP+ cells number / differentiation into MBP+ cells (summary statement),[2],increased also the number of MBP+ cells
same,number of MBP+ cells (mature oligodendrocytes),"[2]; 14 days co-culture, 125 nM LDN-193189 added to MYL media with 50 ng/ml Noggin, vs Noggin alone",increased the number of MBP+ cells; also recorded: significant increase
same,total cell count,"[2]; 14 days co-culture, Noggin+LDN-193189 vs Noggin alone",no difference was observed
